# Assay results published in patent US20040171795A1, “Novel peptides” (priority 2000, published 2004).
# Legend:
# [1] = tested on: cell (Vero, T24 or A549 of Example 9; not given); assay: Nucleic acid-introducing ability, luciferase-expressing plasmid (procedure of Example 9); type: cell-based
# Text: A cell line established from monkey kidney (Vero cell) and a human bladder cancer cell (T24 cell) purchased from American Type Culture Collection (ATCC) and human lung cancer cell (A549 cell) purchased from Dainippon Pharmaceutical were inoculated on a 24 well culture plate (manufactured by NALGEN NUNC) at 1×10^5 cells/well. Vero cell and A549 cell were cultivated in DMEM (manufactured by Life Technologies Oriental) supplemented with 10% fetal bovine serum (hereinafter referred to as FBS, manufactured by NICHIREI), and T24 cell was cultivated in McCoy's 5a (manufactured by Life Technologies Oriental) supplemented with 10% FBS in 5% CO2 atmosphere at 37° C. for 24 hours. After removing the medium, opti-MEM (manufactured by Life Technologies Oriental) prepared to have the concentration of the luciferase-expressing plasmid prepared in Example 7 of 1 μg/mL and the concentration of the peptide prepared in Example 1 of 1.25, 2.5, or 5 μM was added, and the cells were cultivated for 5 hours. Next, in the case of Vero cell and A549 cell, the culture medium was replaced with DMEM supplemented with 10% FBS, and in the case of T24 cell, the medium was replaced with McCoy's 5a supplemented with 10% FBS, and cultivation was continued in 5% CO2 atmosphere and at 37° C. for another 24 hours. The luciferase activity expressed in the cell was then measured by the method instructed in luciferase assay system (manufactured by Promega). To be more specific, the cells were washed with phosphate-buffered saline (hereinafter referred to as PBS, manufactured by SIGMA), and the cells were lyzed with Passive Lysis Buffer attached to the kit. 20 μL of this cell lysate and 100 μL of the Luciferase Assay Reagent II attached to the kit was added to a fluorescence-measuring plate (Microlite™ 1 plate, manufactured by Dynatech), and after mixing, fluorescence was measured for 1 second by using a multilabel counter (ARVO™ SY1420 MULTILABEL COUNTER, manufactured by Wallac Beltold.
# Concentration of the protein in the cell lysate was measured by mixing 8 μL of the cell lysate and 200 μL of the protein assay solution (manufactured by Biorad) with 792 μL of ultrapure water in a disposable cuvette (UV fluorescent cuvette A204X, manufactured by Funakoshi), allowing the mixture to stand for 5 minutes at room temperature, and measuring the absorption at 595 nm with a spectrophotometer (DU640, manufactured by Beckman). Bovine serum albumin (BSA) was used for the standard protein. By using the thus obtained results, count per 1 second per 1 mg of protein of the cell lysate was calculated to thereby use the count as the luciferase activity, and the highest count in the three conditions of different peptide concentration was designated the gene-introducing ability of the peptide.
# It is to be noted that the nucleic acid-introducing ability was classified as described below on the bases of the fluorescent count per 1 mg of protein per 1 second (cps/mg protein).
# [2] = Measurement of CD spectrum; type: physicochemical; settings: aqueous solution solely containing an inorganic salt, pH 7, 35° C.
# Experimental: The peptide dissolved in 10 mM phosphate buffer (pH=7) containing 50 mM NaCl was evaluated for its CD spectrum in the presence and in the absence of 5 mM SDS by using a circular dichroism spectrophotometer (J-500A, manufactured by JASCO). The cell length was 1 mm. The measurement was conducted at 35° C. for 6 times in total. FIGS. 7 to 9 are respectively views showing mean residue ellipticity in CD spectroscopy of the peptide of SEQ ID NO:1, the peptide of SEQ ID NO:4 and the peptide of SEQ ID NO:16. As evident in FIGS. 7 to 9, the mean residue ellipticity obtained in the presence of SDS was the so called W curve and local minimums were found in the areas at the wavelength of 205 to 210 nm and 220 to 225 nm, and α-helix structure was thereby confirmed.
# plasmid (pUC119) = assay: Binding ability to plasmid (electrophoresis); settings: charge ratio (+/−ratio) of 3
# Experimental: The plasmid prepared by the procedure described in Example 7 (pUC119; final concentration, 20 μg/mL) and the peptides prepared by the procedure described in Examples 1 to 3 were mixed in 20 mM Tris HCl buffer (pH=7.2) containing 150 mM NaCl at a charge ratio (+/−ratio) of 0 to 3, and the mixture was allowed to stand at 37° C. for 30 minutes. Electrophoresis was then conducted on 1% agarose gel to thereby determine the binding of the plasmid and the peptide.
# The +/−ratio (charge ratio) indicated in FIG. 11 is the ratio of the number (+) of the positively-charged groups in the peptide to the number (−) of negatively-charged groups in the plasmid. As evident in FIG. 11, the amount of plasmid that became bound to the peptide increased with the increase in the charge ratio (+/−ratio), and the plasmid was fully bound to the peptide at a charge ratio (+/−ratio) of 3. The peptides of SEQ ID NO:2 to SEQ ID NO:24 were also found to bind at a charge ratio (+/−ratio) of 3.
substance,measurement,setting,value
"SEQ ID NO: 1: peptide having the amino acid sequence of SEQ ID NO:1, made by solid phase synthesis (TRYLRIHPRSWVHQIALRLRYLRIHPRSWVHQIALRS; synthetic peptide using an automatic peptide synthesizer)",Nucleic acid-introducing ability,"[1]; class of fluorescent count per 1 mg of protein per 1 second, highest of peptide 1.25, 2.5, 5 μM, plasmid 1 μg/mL","3+ (1,000,000 to less than 10,000,000)"
same,ability of introducing the nucleic acid into a cell,"[1]; procedure of Example 9, luciferase-expressing plasmid",found to have the ability of introducing the nucleic acid into a cell
same,α-helix structure in CD spectrum in the absence of SDS,[2],do not take α-helix structure
same,binding of plasmid to the peptide,plasmid (pUC119),fully bound
